Experimental data from patent US5837728A, “9-cis retinoic acid esters and amides and uses thereof” (priority 1995, dated 1998).
“Also recorded” adds a separate entry of the source.

Legend:
rabbit skin = test: Draize test for irritation (rabbit dermal irritation); assay type: in vivo
[1] = test system: Human neonatal foreskin fibroblasts; test: Growth of human neonatal foreskin fibroblasts (cell number); assay type: cell-based; conditions: two days
Excerpt: (§1) Human neonatal foreskin keratinocytes and human neonatal foreskin fibroblasts were isolated and grown in monlayer culture. Culture medium for keratinocytes was Keratincyte Growth Medium (KGM) from Clonetics, Inc., San Diego. Calif. The culture medium for fibroblasts was Dulbecco's Modified Eagle's Medium (DMEM) supplemented with non-essential amino acids and 10% fetal bovine serum. The culture medium was obtained from GIBCO, Grand Island, N.Y. and the FBS was from Hyclone Labs, Inc., Logan, Utah.
Cells at passage 2-4 were plated in wells of a 24 well dish at approximately 5×10^4 cells per well in their respective culture medium. Incubation was at 37° C. with 5% CO2. After the cells attached and spread overnight, they were washed two times in serum-free keratincyte basal medium (KBM) and incubated in 1 ml of KBM or in 1 ml of KGM. Compound IV was added in varying concentrations to the wells. All-trans-retinoic acid (or no treatment) was added to control wells. The cells were incubated for an additional two days for fibroblasts and three days for keratinocytes, and were then harvested and counted. The effect of IV and of the controls are shown for both cell types in Tables 9 and 10: […]

[2] = test system: Human neonatal foreskin keratinocytes; test: Growth of human neonatal foreskin keratinocytes (cell number); assay type: cell-based; conditions: three days
Excerpt: as §1
Cells at passage 2-4 were plated in wells of a 24 well dish at approximately 5×10^4 cells per well in their respective culture medium. Incubation was at 37° C. with 5% CO2. After the cells attached and spread overnight, they were washed two times in serum-free keratincyte basal medium (KBM) and incubated in 1 ml of KBM or in 1 ml of KGM. Compound IV was added in varying concentrations to the wells. […] The cells were incubated for an additional two days for fibroblasts and three days for keratinocytes, and were then harvested and counted.

[3] = test system: partial-thickness skin wounds; conditions: cited from earlier work
skin wound of rats = conditions: 1% for 3 days before and 0.1% after the wound; cited from earlier work
photoaged skin = conditions: cited from earlier work
[4] = test system: ultraviolet damaged skin of hairless mice; conditions: topical tretinoin, several weeks; cited from earlier work
keratinocytes = conditions: in vitro; cited from earlier work
[5] = 0.1% retinoic acid hydrophilic cream, 16 weeks

CC1=C(/C=C/C(C)=C/C=C/C(C)=C/C(=O)O)C(C)(C)CCC1 [all-trans-retinoic acid, reference compound]
Erythema Grade (rabbit skin; dose 0.001%): 0.4 | Erythema Grade (rabbit skin; dose 0.01%): 0.8 | Erythema Grade (rabbit skin; dose 0.1%): 2.8 | ID50, dermal irritation (rabbit skin; rabbit): 0.01% | Number of fibroblasts ([1]; 0.25 μg/ml): 10.1 ± 0.2 × 10^4 cells | Number of fibroblasts ([1]; 0.5 μg/ml): 10.1 ± 0.1 × 10^4 cells | Number of fibroblasts ([1]; 1.0 μg/ml): 9.6 ± 0.1 × 10^4 cells | Number of keratinocytes, KGM ([2]; 0.25 μg/ml): 24.7 ± 1.7 × 10^4 cells | Number of keratinocytes, KMB ([2]; 0.25 μg/ml): 13.7 ± 1.6 × 10^4 cells | Number of keratinocytes, KGM ([2]; 0.5 μg/ml): 17.7 ± 0.8 × 10^4 cells | Number of keratinocytes, KMB ([2]; 0.5 μg/ml): 15.2 ± 0.1 × 10^4 cells | Number of keratinocytes, KMB ([2]; 1.0 μg/ml): 12.3 ± 1.0 × 10^4 cells | Effect on healing when applied after wounding ([3]; applied after wounding): deleterious effect on healing | Rate of healing ([3]; pre-treated with 0.05% tretinoin cream for 10 days prior to wounding): 6% | Acceleration of healing compared to control group (skin wound of rats): 18% | Effect on sun damaged skin (Weiss study) (photoaged skin; [5]): some positive effects on the surface texture and wrinkling of sun damaged facial skin, and on the histology of the epidermal and stratum corneum layers of dorsal forearm skin | Irritancy (Weiss study) (photoaged skin; [5]): moderately severe irritancy level | Patients who experienced dermatitis (photoaged skin; Weiss et al.): 92% | Improvement of photoaging of the skin (photoaged skin; cream containing 0.1% tretinoin, daily topical): could be improved within a 16-week period | Redness, peeling, stinging, burning and dryness (photoaged skin; topical tretinoin therapy): consistently experienced by nearly all subjects | Subjects with dermatitis severe enough to require topical steroids (photoaged skin; topical tretinoin therapy): Eleven of fifteen subjects | Subjects withdrawn due to severity of dermatitis (photoaged skin; topical tretinoin therapy): Three of fifteen | Repair of ultraviolet damaged skin [4]: subepidermal repair zone in the treated mice was significantly wider than that in the untreated control group; also recorded: augmented the repair of ultraviolet damaged tissue in the hairless mouse with new blood vessel formation | Effect on keratinocyte proliferation and growth (keratinocytes): capacity to stimulate proliferation of quiescent keratinocytes in vitro
